Target: T1, GPR119 receptor (Mesocricetus auratus, UniProt A0A1U8CD06)
T1 construct: which endogenously express the GPR119 receptor; host or cells: HIT-T15 hamster pancreatic islet cells
T1 sequence (A0A1U8CD06 1-334): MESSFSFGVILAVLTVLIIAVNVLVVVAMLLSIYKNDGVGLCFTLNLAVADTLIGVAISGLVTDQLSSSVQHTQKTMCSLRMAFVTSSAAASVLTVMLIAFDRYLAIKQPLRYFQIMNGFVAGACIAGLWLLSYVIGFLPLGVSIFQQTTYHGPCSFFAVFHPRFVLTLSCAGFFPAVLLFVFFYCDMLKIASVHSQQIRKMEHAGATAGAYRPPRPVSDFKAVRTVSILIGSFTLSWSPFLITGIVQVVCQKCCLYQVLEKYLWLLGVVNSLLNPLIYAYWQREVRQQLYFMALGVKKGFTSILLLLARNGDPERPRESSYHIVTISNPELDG
Assay: cAMP assay in HIT-T15 hamster pancreatic islet cells (functional agonist activity)
Assay type: cell-based
Details: HIT-T15 cells endogenously expressing GPR119; 30 min at 25° C.; intracellular cAMP
Description: The functional agonist activities of compounds of the invention were characterized using a cAMP assay in HIT-T15 hamster pancreatic islet cells (American Type Culture Collection, Manassas, Va., USA) which endogenously express the GPR119 receptor. The cells were cultured in Kaighn's modification of Ham's F12 medium (Invitrogen Corporation, Carlsbad, Calif., USA) containing 10% horse serum, 2.5% FBS, and 1% Pen/Strep and grown in 225 cm^2 tissue culture flasks until they reached 75-85% confluence.
The cells were harvested 24 h prior to assay with 5 ml Versene®, washed with Kaighn/F12 medium and then plated into white 384-well plates (9000 cells/well) containing Kaighn/F12 medium. Prior to assay, the culture medium was replaced with a Kaighn/F12 medium without phenol red (50 μL/well) containing 0.5 mM 3-isobutyl-1-methylxanthine, 0.5 mg/ml BSA. The cells were incubated in the dark for 30 min at 25° C. in the absence or presence of varying concentrations of agonist (1 μL, 100% DMSO). The incubation media was discarded and replaced with the assay lysis buffer (50 μL/well) provided in the Tropix cAMP-Screen® kit (Applied Biosystems, Foster City, Calif., USA) and the plates incubated for 45 min at 37° C. The intracellular levels of cAMP generated in the HIT-T 15 cells were measured using the Tropix kit. In brief, 20 μL of the lysate was transferred into pre-coated antibody plates (384-well; Tropix kit) along with 10 μL of alkaline phosphatase conjugate and 20 μL of anti-cAMP antibody and the plates were incubated for 1 h at room temperature while shaking. The plates were then washed 5 times with wash buffer (70 μL) and tapped dry. CSPD®/Sapphire-II™ RTU substrate/enhancer solution (Applied Biosystems, Foster City, Calif., USA; 30 μL) was added and the plates were incubated for 45 min at room temperature while shaking. The signal generated was measured using a Wallac Victor V Luminometer (PerkinElmer Life And Analytical Sciences, Inc., Waltham, Mass., USA; 1 sec/well). EC50 values were calculated using the XLFit program (ID Business Solutions Ltd., Guildford, Surrey, UK).

Structure (SMILES)	EC50
Cc1cc(C(=O)N2CCC(n3ncc4c(Oc5ccc(S(C)(=O)=O)cc5)ncnc43)CC2)nn1C [Example 152, (1,5-Dimethyl-1H-pyrazol-3-yl)-{4-[4-(4-methanesulfonyl-phenoxy)-pyrazolo[3,4-d]pyrimidin-1-yl]-piperidin-1-yl}-methanone]	0.39 µM
Cc1cc(C(=O)N2CCC(n3ncc4c(Oc5ccc(S(C)(=O)=O)cc5)ncnc43)CC2)no1 [Example 153, {4-[4-(4-Methanesulfonyl-phenoxy)-pyrazolo[3,4-d]pyrimidin-1-yl]-piperidin-1-yl}-(5-methyl-isoxazol-3-yl)-methanone]	4.4 µM
CS(=O)(=O)c1ccc(Oc2ncnc3c2cnn3C2CCN(C(=O)C3CCCC3)CC2)cc1 [Example 141, Cyclopentyl-{4-[4-(4-methanesulfonyl-phenoxy)-pyrazolo[3,4-d]pyrimidin-1-yl]-piperidin-1-yl}-methanone]	0.42 µM
CC(C)C(=O)N1CCC(n2ncc3c(Oc4ccc(S(C)(=O)=O)cc4)ncnc32)CC1 [Example 136, 1-{4-[4-(4-Methanesulfonyl-phenoxy)-pyrazolo[3,4-d]pyrimidin-1-yl]-piperidin-1-yl}-2-methyl-propan-1-one]	0.99 µM
CC(C)Cc1cc(C(=O)N2CCC(n3ncc4c(Oc5ccc(S(C)(=O)=O)cc5)ncnc43)CC2)no1 [Example 154, (5-Isobutyl-isoxazol-3-yl)-{4-[4-(4-methanesulfonyl-phenoxy)-pyrazolo[3,4-d]pyrimidin-1-yl]-piperidin-1-yl}-methanone]	0.36 µM
CS(=O)(=O)c1ccc(Oc2ncnc3c2cnn3C2CCN(C(=O)c3cc(Cl)cc(Cl)c3)CC2)cc1 [Example 150, (3,5-Dichloro-phenyl)-{4-[4-(4-methanesulfonyl-phenoxy)-pyrazolo[3,4-d]pyrimidin-1-yl]-piperidin-1-yl}-methanone]	2.1 µM
CC(C)(C)OC(=O)N1CCC(n2ncc3c(Oc4cc(F)c(F)cc4C#N)ncnc32)CC1 [Example 50, 4-[4-(2-Cyano-4,5-difluoro-phenoxy)-pyrazolo[3,4-d]pyrimidin-1-yl]-piperidine-1-carboxylic acid tert-butyl ester]	0.69 µM
CC(C)(C)OC(=O)N1CCC(n2ncc3c(Nc4ccc(S(C)(=O)=O)cc4)ncnc32)CC1 [Example 5, 4-[4-(4-Methanesulfonyl-phenylamino)-pyrazolo[3,4-d]pyrimidin-1-yl]-piperidine-1-carboxylic acid tert-butyl ester]	1.5 µM
Cc1cc(=O)oc2cc(Oc3ncnc4c3cnn4C3CCN(C(=O)OC(C)(C)C)CC3)ccc12 [Example 76, 4-[4-(4-Methyl-2-oxo-2H-chromen-7-yloxy)-pyrazolo[3,4-d]pyrimidin-1-yl]-piperidine-1-carboxylic acid tert-butyl ester]	3 µM
CC(C)(C)OC(=O)N1CCC(n2ncc3c(Oc4ccc(Br)cc4C#N)ncnc32)CC1 [Example 52, 4-[4-(4-Bromo-2-cyano-phenoxy)-pyrazolo[3,4-d]pyrimidin-1-yl]-piperidine-1-carboxylic acid tert-butyl ester]	0.75 µM
CC(C)(C)OC(=O)N1CCC(n2ncc3c(Oc4ccc(C#N)cc4)ncnc32)CC1 [Example 46, 4-[4-(4-Cyano-phenoxy)-pyrazolo[3,4-d]pyrimidin-1-yl]-piperidine-1-carboxylic acid tert-butyl ester]	0.48 µM
CC(C)(C)C(=O)N1CCC(n2ncc3c(Oc4cc(F)c(F)cc4F)ncnc32)CC1 [Example 137, 2,2-Dimethyl-1-{4-[4-(2,4,5-trifluoro-phenoxy)-pyrazolo[3,4-d]pyrimidin-1-yl]-piperidin-1-yl}-propan-1-one]	1.6 µM
CC(C)(C)OC(=O)N1CCC(n2ncc3c(Oc4cccnc4)ncnc32)CC1 [Example 91, 4-[4-(Pyridin-3-yloxy)-pyrazolo[3,4-d]pyrimidin-1-yl]-piperidine-1-carboxylic acid tert-butyl ester]	1.2 µM
CC(C)(C)C(=O)N1CCC(n2ncc3c(Oc4ccc(S(C)(=O)=O)cc4)ncnc32)CC1 [Example 138, 1-{4-[4-(4-Methanesulfonyl-phenoxy)-pyrazolo[3,4-d]pyrimidin-1-yl]-piperidin-1-yl}-2,2-dimethyl-propan-1-one]	0.78 µM
COc1ccc(Oc2ncnc3c2cnn3C2CCN(C(=O)OC(C)(C)C)CC2)cn1 [Example 96, 4-[4-(6-Methoxy-pyridin-3-yloxy)-pyrazolo[3,4-d]pyrimidin-1-yl]-piperidine-1-carboxylic acid tert-butyl ester]	1.5 µM
CC(C)(C)OC(=O)N1CCC(n2ncc3c(Oc4ccc(-n5cnnn5)cc4)ncnc32)CC1 [Example 83, 4-[4-(4-Tetrazol-1-yl-phenoxy)-pyrazolo[3,4-d]pyrimidin-1-yl]-piperidine-1-carboxylic acid tert-butyl ester]	1.6 µM

Compounds with a lower EC50, results first:

EC50	Structure (SMILES)
0.2 µM	CCOc1ccc(Oc2ncnc3c2cnn3C2CCN(C(=O)OC(C)(C)C)CC2)cc1 [Example 40, 4-[4-(4-Ethoxy-phenoxy)-pyrazolo[3,4-d]pyrimidin-1-yl]-piperidine-1-carboxylic acid tert-butyl ester]
0.12 µM	CC(C)(C)OC(=O)N1CCCC(n2ncc3c(Oc4ccccc4C#N)ncnc32)C1 (stereo not drawn) [Example 90, 3-[4-(2-Cyano-phenoxy)-pyrazolo[3,4-d]pyrimidin-1-yl]-piperidine-1-carboxylic acid tert-butyl ester]
0.098 µM	CC(C)OC(=O)N1CCC(n2ncc3c(Oc4ccc(S(C)(=O)=O)c(F)c4)ncnc32)CC1 [Example 24, 4-[4-(3-Fluoro-4-methanesulfonyl-phenoxy)-pyrazolo[3,4-d]pyrimidin-1-yl]-piperidine-1-carboxylic acid isopropyl ester]
0.21 µM	Cc1nn(C2CCN(C(=O)OC(C)C)CC2)c2ncnc(Oc3ccc(S(C)(=O)=O)cc3)c12 [Example 22, 4-[4-(4-Methanesulfonyl-phenoxy)-3-methyl-pyrazolo[3,4-d]pyrimidin-1-yl]-piperidine-1-carboxylic acid isopropyl ester]
0.018 µM	CS(=O)(=O)c1ccc(Oc2ncnc3c2cnn3C2CCN(C(=O)OCC(Cl)(Cl)Cl)CC2)cc1 [Example 115, 4-[4-(4-Methanesulfonyl-phenoxy)-pyrazolo[3,4-d]pyrimidin-1-yl]-piperidine-1-carboxylic acid 2,2,2-trichloro-ethyl ester]
0.17 µM	Cc1ncccc1Oc1ncnc2c1cnn2C1CCN(C(=O)OC(C)(C)C)CC1 [Example 92, 4-[4-(2-Methyl-pyridin-3-yloxy)-pyrazolo[3,4-d]pyrimidin-1-yl]-piperidine-1-carboxylic acid tert-butyl ester]
0.043 µM	CC(C)(C)OC(=O)N1CCC(n2ncc3c(Oc4ccc(S(C)(=O)=O)cc4)ncnc32)CC1 [Example 59, 4-[4-(4-Methanesulfonyl-phenoxy)-pyrazolo[3,4-d]pyrimidin-1-yl]-piperidine-1-carboxylic acid tert-butyl ester]
0.15 µM	CC[C@@H](C)OC(=O)N1CCC(n2ncc3c(Oc4ccc(S(C)(=O)=O)cc4)ncnc32)CC1 [Example 105, 4-[4-(4-Methanesulfonyl-phenoxy)-pyrazolo[3,4-d]pyrimidin-1-yl]-piperidine-1-carboxylic acid (R)-sec-butyl ester]
0.14 µM	CC(=O)Nc1ccc(Oc2ncnc3c2cnn3C2CCN(C(=O)OC(C)(C)C)CC2)cc1 [Example 70, 4-[4-(4-Acetylamino-phenoxy)-pyrazolo[3,4-d]pyrimidin-1-yl]-piperidine-1-carboxylic acid tert-butyl ester]
0.2 µM	CC(C)(C)OC(=O)N1CCC(n2ncc3c(Oc4cccnc4C#N)ncnc32)CC1 [Example 99, 4-[4-(2-Cyano-pyridin-3-yloxy)-pyrazolo[3,4-d]pyrimidin-1-yl]-piperidine-1-carboxylic acid tert-butyl ester]
0.048 µM	CC(C)(C)OC(=O)N1CCC(n2ncc3c(Oc4c(C#N)ccc(F)c4F)ncnc32)CC1 [Example 49, 4-[4-(6-Cyano-2,3-difluoro-phenoxy)-pyrazolo[3,4-d]pyrimidin-1-yl]-piperidine-1-carboxylic acid tert-butyl ester]
